Results taken from patent US20220401414A1, “TREATMENT AND PREVENTION OF A NEURODEGENERATIVE DISORDER” (Inflazome Limited, priority 2019, published 2022).

Columns and labels:
[1] = Study B: blood-brain barrier penetration, striatal MetaQuant microdialysis in unilateral 6-OHDA lesioned mice after oral dosing; format: in vivo, C57B1/6 mice; conditions: 6-OHDA mice; for average peak levels in left and right striatal dialysate: MetaQuant dialysate, not corrected for recovery (recovery 61%); for time of average peak levels after compound administration: striatal dialysate
Procedure: The present study was designed to assess the free concentration of the compound of formula (I) in the left and right striatum of freely-moving adult male mice with a unilateral 6-hydroxydopamine (6-OHDA) lesion.
Adult male C57B1/6 mice (23-28 g; Envigo, the Netherlands) were used for the experiments. Following arrival, animals were housed in groups of 5 in polypropylene cages (40×50×20 cm) with wire mesh top in a temperature (22±2° C.) and humidity (55±15%) controlled environment on a 12 hour light cycle (07.00-19.00). Following surgery, animals were housed individually (cages 30×30×40 cm). Standard diet (SDS Diets, RM1 PL) and domestic quality mains water were available ad libitum.
Mice were anesthetized using isoflurane (2% and 500 mL/min O2). Before surgery, Finadyne (1 mg/kg, s.c.) was administered for analgesia during surgery and the post-surgical recovery period. A mixture of bupivacaine and epinephrine was used for local analgesia of the incision site.
The animals were placed in a stereotaxic frame (Kopf instruments, USA). 10 μg of 6-OHDA in 2 μL saline was slowly injected into the right striatum using a Hamilton needle (coordinates for the tip of the needle: AP=−0.5 mm (to bregma), ML=−2.0 mm (to midline), DV=-4.0 mm (to dura) with an angle of 0° and the incisor bar set at 0.0 mm.
In the same surgical procedure, guides for MetaQuant microdialysis probes with a 3 mm exposed polyacrylonitrile membrane (MQ-PAN 3/3) were implanted bilaterally into the left and right striatum (coordinates for the tip of the probe: AP=+0.8 mm (to bregma), ML=+/−1.7 mm (to midline), DV=−4.0 mm (to dura) with an angle of 0° and the incisor bar set at 0.0 mm. All coordinates were based on “The mouse brain in stereotaxic coordinates” by Paxinos and Franklin (2008). The probes were attached to the skull with a stainless-steel screw and dental cement.
The monosodium salt of the compound of formula (I) was formulated in sterilized tap water at concentrations of 0.2 and 4 mg/mL for oral dosing at 5 mL/kg; 1 mg/kg and 20 mg/kg, respectively.
After recovery from lesion and the guide surgery, on day 10, MetaQuant microdialysis probes were connected with flexible PEEK tubing (Western Analytical Products Inc. USA; PK005-020) to a microperfusion pump (Harvard) and perfused with a slow flow of artificial CSF (perfusate), containing 147 mM NaCl, 3.0 mM KCl, 1.2 mM CaCl2, and 1.2 mM MgCl2, at a flow rate of 0.12 μL/min and a carrier flow of UP+0.02 M FA+0.04% ascorbic acid at 0.8 μL/min. After a minimum of two hours of prestabilisation, microdialysis samples were collected in 60 minute intervals. […]
Levels of the compound of formula (I) in MetaQuant microdialysate samples were quantified by LC-MS/MS. […]

[2] = system: PFF-Synuclein model of Parkinson's disease; experiment: Study H: rotarod test in the PFF-Synuclein mouse model; format: in vivo, C57BL6 mice; conditions: 4, 6, 8 and 10 months
Excerpt: To determine the oral efficacy of the compound of formula (I) in a chronic progressive model of Parkinson's disease (PD), the preformed fibrils (PFF) mouse model, using a prophylactic and therapeutic dosing schedule.
8-week-old C57BL6 male mice (obtained from ARC, Perth, Australia) were housed under a 12-h light cycle in a SPF climate-controlled facility with food and water provided ad libitum for two weeks prior to study initiation. The compound of formula (I) (or water alone for control animals) was administrated to mice in drinking water at 0.3 mg/ml. Animals were separated into the groups described in Table 9, with ten animals initiated in each cohort. […]
Recombinant human a-synuclein was obtained from rPeptide Inc., and in vitro fibril generation was performed with a final concentration of 2 mg/ml in phosphate-buffered saline (PBS) by incubation at 37° C. with agitation in an orbital mixer (400 rpm) for 7 days with daily cycles of sonication used to break down fibrillar aggregates as outlined in previously published reports (see Luk et al., Science, 2012, vol. 338(6109), pp. 949-53; and Zhang et al., Methods Mol. Biol., 2019, vol. 1948, pp. 45-57, which are incorporated in their entirety herein by reference). The generation of fibrillar α-synuclein species was confirmed by transmission electron microscopy and Thioflavin T fluorescence prior to use. […]

average peak levels in left and right striatal dialysate ([1]; 1 mg/kg oral): 17 to 19 nM
time of average peak levels after compound administration ([1]; 1 mg/kg oral): 5 h
average peak levels in left and right striatal dialysate ([1]; 20 mg/kg oral): 280 to 300 nM
time of average peak levels after compound administration ([1]; 20 mg/kg oral): 6 h
SMILES: CC(C)n1ccc(S(=O)(=O)NC(=O)Nc2c3c(cc4c2CCC4)CCC3)n1 [compound of formula (I)]
performance on the rotarod ([2]; prophylactic: 0.3 mg/ml in drinking water from 24 h before PFF injection): improved performance on the rotarod
performance on the rotarod ([2]; therapeutic: 0.3 mg/ml in drinking water from 4 months after PFF injection): improved performance on the rotarod
